Results from patent US9168281B2, “Kit for treating a wound” (priority 2011, dated 2015).

How the values were obtained:
Assay in all cases: Phenol Red Dextrose broth growth test of product containing CPC
Format in all cases: cell-based
Conditions in all cases: 37° C., 24 hours
P. aeruginosa = tested on: P. aeruginosa
Method: (§1) Phenol Red Dextrose broth tubes were prepared and a small loop of an organism cultured in peptone broth for 24 hours at 37° C. was used to inoculate the tubes in duplicate to a series of ten. […] The inoculated tubes were incubated at a temperature of 37° C. for 24 hours and growth of organism assessed compared to an inoculated tube without presence of product.

Strep equi = tested on: Strep equi
Method: as §1

Proteus vulgaris = tested on: Proteus vulgaris
Method: as §1

Staph aureus (MRSA) = tested on: Staph aureus (MRSA)
Method: as §1

Candida albicans = tested on: Candida albicans
Method: as §1

Staph aureus (non MRSA) = tested on: Staph aureus (non MRSA)
Method: as §1

Strep pyogenes = tested on: Strep pyogenes
Method: as §1

Measured: growth of organism

CCCCCCCCCCCCCCCC[n+]1ccccc1 [CPC, cetyl pyridinium chloride]
n/g: P. aeruginosa; 0.1 mL CPC (0.004% vol. comp) | P. aeruginosa; 0.2 mL CPC (0.008% vol. comp) | P. aeruginosa; 0.3 mL CPC (0.016% vol. comp) | P. aeruginosa; 0.4 mL CPC (0.032% vol. comp) | P. aeruginosa; 0.5 mL CPC (0.064% vol. comp) | P. aeruginosa; 0.6 mL CPC (0.128% vol. comp) | P. aeruginosa; 0.7 mL CPC (0.256% vol. comp) | P. aeruginosa; 0.8 mL CPC (0.512% vol. comp) | P. aeruginosa; 0.9 mL CPC (1.024% vol. comp) | P. aeruginosa; 1.0 mL CPC (2.048% vol. comp) | Strep equi; 0.1 mL CPC (0.004% vol. comp) | Strep equi; 0.2 mL CPC (0.008% vol. comp) | Strep equi; 0.3 mL CPC (0.016% vol. comp) | Strep equi; 0.4 mL CPC (0.032% vol. comp) | Strep equi; 0.5 mL CPC (0.064% vol. comp) | Strep equi; 0.6 mL CPC (0.128% vol. comp) | Strep equi; 0.7 mL CPC (0.256% vol. comp) | Strep equi; 0.8 mL CPC (0.512% vol. comp) | Strep equi; 0.9 mL CPC (1.024% vol. comp) | Strep equi; 1.0 mL CPC (2.048% vol. comp) | Proteus vulgaris; 0.1 mL CPC (0.004% vol. comp) | Proteus vulgaris; 0.2 mL CPC (0.008% vol. comp) | Proteus vulgaris; 0.3 mL CPC (0.016% vol. comp) | Proteus vulgaris; 0.4 mL CPC (0.032% vol. comp) | Proteus vulgaris; 0.5 mL CPC (0.064% vol. comp) | Proteus vulgaris; 0.6 mL CPC (0.128% vol. comp) | Proteus vulgaris; 0.7 mL CPC (0.256% vol. comp) | Proteus vulgaris; 0.8 mL CPC (0.512% vol. comp) | Proteus vulgaris; 0.9 mL CPC (1.024% vol. comp) | Proteus vulgaris; 1.0 mL CPC (2.048% vol. comp) | Staph aureus (MRSA); 0.1 mL CPC (0.004% vol. comp) | Staph aureus (MRSA); 0.2 mL CPC (0.008% vol. comp) | Staph aureus (MRSA); 0.3 mL CPC (0.016% vol. comp) | Staph aureus (MRSA); 0.4 mL CPC (0.032% vol. comp) | Staph aureus (MRSA); 0.5 mL CPC (0.064% vol. comp) | Staph aureus (MRSA); 0.6 mL CPC (0.128% vol. comp) | Staph aureus (MRSA); 0.7 mL CPC (0.256% vol. comp) | Staph aureus (MRSA); 0.8 mL CPC (0.512% vol. comp) | Staph aureus (MRSA); 0.9 mL CPC (1.024% vol. comp) | Staph aureus (MRSA); 1.0 mL CPC (2.048% vol. comp) | Candida albicans; 0.1 mL CPC (0.004% vol. comp) | Candida albicans; 0.2 mL CPC (0.008% vol. comp) | Candida albicans; 0.3 mL CPC (0.016% vol. comp) | Candida albicans; 0.4 mL CPC (0.032% vol. comp) | Candida albicans; 0.5 mL CPC (0.064% vol. comp) | Candida albicans; 0.6 mL CPC (0.128% vol. comp) | Candida albicans; 0.7 mL CPC (0.256% vol. comp) | Candida albicans; 0.8 mL CPC (0.512% vol. comp) | Candida albicans; 0.9 mL CPC (1.024% vol. comp) | Candida albicans; 1.0 mL CPC (2.048% vol. comp) | Staph aureus (non MRSA); 0.1 mL CPC (0.004% vol. comp) | Staph aureus (non MRSA); 0.2 mL CPC (0.008% vol. comp) | Staph aureus (non MRSA); 0.3 mL CPC (0.016% vol. comp) | Staph aureus (non MRSA); 0.4 mL CPC (0.032% vol. comp) | Staph aureus (non MRSA); 0.5 mL CPC (0.064% vol. comp) | Staph aureus (non MRSA); 0.6 mL CPC (0.128% vol. comp) | Staph aureus (non MRSA); 0.7 mL CPC (0.256% vol. comp) | Staph aureus (non MRSA); 0.8 mL CPC (0.512% vol. comp) | Staph aureus (non MRSA); 0.9 mL CPC (1.024% vol. comp) | Staph aureus (non MRSA); 1.0 mL CPC (2.048% vol. comp) | Strep pyogenes; 0.1 mL CPC (0.004% vol. comp) | Strep pyogenes; 0.2 mL CPC (0.008% vol. comp) | Strep pyogenes; 0.3 mL CPC (0.016% vol. comp) | Strep pyogenes; 0.4 mL CPC (0.032% vol. comp) | Strep pyogenes; 0.5 mL CPC (0.064% vol. comp) | Strep pyogenes; 0.6 mL CPC (0.128% vol. comp) | Strep pyogenes; 0.7 mL CPC (0.256% vol. comp) | Strep pyogenes; 0.8 mL CPC (0.512% vol. comp) | Strep pyogenes; 0.9 mL CPC (1.024% vol. comp) | Strep pyogenes; 1.0 mL CPC (2.048% vol. comp)
